Data as given in patent publication US9593149B2, “Amylin and calcitonin receptor agonist” (Novo Nordisk A/S, priority 2014, dated 2017).
Numbered stars: 1 amine (or outer) side, 2 acyl side, 3 side chain; on linkers, the order of the positions; unused ones are H or OH. Peptide text beside a SMILES is read from it. * marks the point of attachment. C20 diacid = O=C(O)CCCCCCCCCCCCCCCCCCC(=O)*; γGlu = O=C(O)[C@H](CCC(=O)[*:2])N[*:1]; AEEA = NCCOCCOCC(=O)O

Assay: Assay (IV) determination of solubility
Format: physicochemical
Description: Assay (IV)—Determination of Solubility
The mimylin peptide was dissolved in water at ˜500 nmol/ml and mixed 1:1 with a series of buffers (100 mM glycylglycine pH 3.0, 100 mM glycylglycine pH 4.0, 100 mM glycylglycine pH 5.0, 100 mM bistrispropane pH 6.0, 100 mM bistrispropane pH 6.5, 100 mM bistrispropane pH 7.0, 100 mM bistrispropane pH 7.5, 100 mM bistrispropane pH 8.0).

Measured: Solubility

CC(C)C[C@H](NC(=O)[C@H](C)NC(=O)[C@H](C)NC(=O)[C@@H](NC(=O)[C@H](CO)NC(=O)[C@H](CC(C)C)NC(=O)[C@H](CCC(=O)O)NC(=O)[C@H](CO)NC(=O)[C@H](C)NC(=O)CC[C@H](NC(=O)CCCCCCCCCCCCCCCCCCC(=O)O)C(=O)O)[C@@H](C)O)C(=O)NCC(=O)N[C@@H](Cc1cnc[nH]1)C(=O)N[C@@H](CC(C)C)C(=O)N[C@@H](CO)C(=O)N[C@@H](C)C(=O)N[C@@H](CCC(=O)O)C(=O)N[C@@H](CC(C)C)C(=O)N[C@@H](Cc1cnc[nH]1)C(=O)N[C@@H](CCC(=O)O)C(=O)N[C@@H](CC(C)C)C(=O)N[C@@H](C)C(=O)N[C@H](C(=O)N[C@@H](CC(C)C)C(=O)N1CCC[C@H]1C(=O)N[C@@H](Cc1cnc[nH]1)C(=O)N[C@H](C(=O)N[C@@H](CCC(=O)O)C(=O)N[C@H](C(=O)NCC(=O)N[C@H](C(=O)NCC(=O)N[C@H](C(=O)N1CCC[C@H]1C(N)=O)[C@@H](C)O)[C@@H](C)O)[C@@H](C)O)[C@@H](C)O)[C@@H](C)O [compound 93, [N-terminal(C20 diacid-gGlu), des1, 12H, 25H, 30T, 31G, 32T]mimylin] ({C20 diacid-γGlu}-ASELSTAALGHLSAELHELATLPHTETGTGTP-NH2)
≧200 μM: pH 3.0 | pH 4.0 | pH 5.0 | pH 6.0 | pH 6.5 | pH 7.0 | pH 7.5 | pH 8.0

CC(C)C[C@H](NC(=O)[C@H](C)NC(=O)[C@H](C)NC(=O)[C@@H](NC(=O)[C@H](CO)NC(=O)[C@H](CC(C)C)NC(=O)[C@H](CCC(=O)O)NC(=O)[C@H](CO)NC(=O)[C@H](C)NC(=O)COCCOCCNC(=O)COCCOCCNC(=O)COCCOCCNC(=O)COCCOCCNC(=O)COCCOCCNC(=O)CC[C@H](NC(=O)CCCCCCCCCCCCCCCCCCC(=O)O)C(=O)O)[C@@H](C)O)C(=O)NCC(=O)N[C@@H](CCCNC(=N)N)C(=O)N[C@@H](CC(C)C)C(=O)N[C@@H](CO)C(=O)N[C@@H](C)C(=O)N[C@@H](CCC(=O)O)C(=O)N[C@@H](CC(C)C)C(=O)N[C@@H](Cc1cnc[nH]1)C(=O)N[C@@H](CCC(=O)O)C(=O)N[C@@H](CC(C)C)C(=O)N[C@@H](C)C(=O)N[C@H](C(=O)N[C@@H](CC(C)C)C(=O)N1CCC[C@H]1C(=O)N[C@@H](CCCNC(=N)N)C(=O)N[C@H](C(=O)N[C@@H](CCC(=O)O)C(=O)N[C@H](C(=O)NCC(=O)N[C@@H](CO)C(=O)NCC(=O)N[C@@H](CO)C(=O)N1CCC[C@H]1C(N)=O)[C@@H](C)O)[C@@H](C)O)[C@@H](C)O [compound 45, [N-terminal(C20 diacid-gGlu-5xOEG), des1, 30S, 31G]mimylin] ({C20 diacid-γGlu-AEEA-AEEA-AEEA-AEEA-AEEA}-ASELSTAALGRLSAELHELATLPRTETGSGSP-NH2)
≧200 μM: pH 3.0 | pH 4.0 | pH 5.0 | pH 6.0 | pH 6.5 | pH 7.0 | pH 7.5 | pH 8.0
